Assay results reported in patent US4835154A, “1-aralykyl-5-piperazinylmethyl-2-mercaptoimidazoles and 2-alkylthioimidazoles and their use as dopamine-βhydroxylase inhibitors” (SmithKline Beckman Corporation, priority 1987, dated 1989).

Columns and labels:
DBH [1] = target: T1, DBH (Homo sapiens, UniProt P09172); settings: literature reports; cited from earlier work
T1 sequence (P09172 1-617): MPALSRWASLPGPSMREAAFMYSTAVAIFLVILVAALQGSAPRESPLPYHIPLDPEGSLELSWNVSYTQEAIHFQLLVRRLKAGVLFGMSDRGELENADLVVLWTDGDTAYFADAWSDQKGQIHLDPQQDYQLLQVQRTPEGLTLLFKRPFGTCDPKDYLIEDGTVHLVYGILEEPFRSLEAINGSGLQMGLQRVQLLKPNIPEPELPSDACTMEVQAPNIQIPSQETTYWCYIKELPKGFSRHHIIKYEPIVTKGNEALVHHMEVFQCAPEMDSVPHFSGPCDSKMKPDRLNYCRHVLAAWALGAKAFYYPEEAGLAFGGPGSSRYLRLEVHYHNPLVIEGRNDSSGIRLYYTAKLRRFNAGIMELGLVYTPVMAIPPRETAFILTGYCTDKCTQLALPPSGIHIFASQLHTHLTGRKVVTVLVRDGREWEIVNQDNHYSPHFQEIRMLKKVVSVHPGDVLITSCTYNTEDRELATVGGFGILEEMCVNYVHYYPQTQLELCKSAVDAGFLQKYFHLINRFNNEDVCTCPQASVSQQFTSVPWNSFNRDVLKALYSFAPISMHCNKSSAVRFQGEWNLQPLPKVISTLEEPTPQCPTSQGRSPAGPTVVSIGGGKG

[2] = Ehrreich et al., 1976; cited from earlier work
[3] = test system: spontaneously hypertensive rats; test: mean arterial blood pressure in spontaneously hypertensive rats; format: in vivo; settings: 50 mg/kg intraperitoneally, vs vehicle-treated controls
Protocol: Further, spontaneously hypertensive rats were treated with the compound in Table I at a dose of 50 mg/kg intraperitoneally, and mean arterial blood pressure was monitored for 260 minutes using indwelling cannulae in the tail arteries. […] The maximal blood pressure reduction was approximately 25 mmHg.

DBH [4] = target: T2, DBH (Bos taurus, UniProt P15101); test: in vitro DBH inhibition, conversion of tyramine to octopamine; format: biochemical; settings: molar concentration of compound at which DBH activity was halved; octopamine assayed as p-hydroxybenzaldehyde at 330 nm
T2 sequence (P15101 1-610): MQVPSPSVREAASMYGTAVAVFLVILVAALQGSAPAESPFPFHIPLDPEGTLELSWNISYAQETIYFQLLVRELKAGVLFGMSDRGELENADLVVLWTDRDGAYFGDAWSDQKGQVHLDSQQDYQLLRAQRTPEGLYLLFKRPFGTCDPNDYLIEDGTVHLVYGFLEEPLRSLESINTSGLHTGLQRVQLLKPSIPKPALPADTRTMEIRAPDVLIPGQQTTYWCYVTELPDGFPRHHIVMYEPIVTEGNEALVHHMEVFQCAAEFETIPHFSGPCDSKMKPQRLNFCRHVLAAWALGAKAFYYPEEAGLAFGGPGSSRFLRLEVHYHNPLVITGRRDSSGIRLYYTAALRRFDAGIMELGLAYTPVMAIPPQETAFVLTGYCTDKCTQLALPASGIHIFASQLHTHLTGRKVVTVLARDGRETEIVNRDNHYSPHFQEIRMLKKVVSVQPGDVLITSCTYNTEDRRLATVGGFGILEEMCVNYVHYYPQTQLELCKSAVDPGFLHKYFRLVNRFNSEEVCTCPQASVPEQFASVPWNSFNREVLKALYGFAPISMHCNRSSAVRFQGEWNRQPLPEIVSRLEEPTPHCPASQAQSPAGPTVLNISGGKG
Protocol: Listed in Table I is the compound of the invention that was tested for in vitro DBH inhibition by a standard procedure for assaying conversion of tyramine to octopamine in the presence of DBH. J. J. Pisano, et al., Biochim. Biophys. Acta, 43, 566-568 (1960). Octopamine was assayed following sodium periodate oxidation to p-hydroxybenzaldehyde by measuring spectrophotometric absorbance at 330 nm. In Table I, inhibition is given in molar concentration of compound at which DBH activity was halved (IC50). Fusaric acid, by this test has an IC50 of 8×10^-7 M.

[5] = Teresawa et al., 1971; cited from earlier work

Row | Structure (SMILES) | DBH inhibition (in words) (DBH [1]) | further results
1 | O=C(O)c1ccc(CCC(Br)CBr)cn1 (stereo not drawn) [5-(3,4-dibromobutyl)picolinic acid] | DBH inhibitors | 
2 | O=C(O)c1ccc(CCCCCl)cn1 [5-(4-chlorobutyl) picolinic acid] | inhibit DBH | 
3 | CN(C)C(=S)SCc1ccc(C(=O)O)nc1 [5-(dimethyldithiocarbamoylmethyl)picolinic acid] | DBH inhibitors | 
4 | NOCc1ccccc1 [Benzyloxyamine] | competitive inhibitors | 
5 | CCCCc1ccc(C(N)=O)nc1 [Bupicomide, 5-(n-butyl)picolinamine] | DBH inhibitor | antihypertensive activity [2]: antihypertensive activity
6 | CN1CCN(Cc2cnc(S)n2Cc2cc(F)cc(F)c2)CC1 [Example 1, 1-(3,5-Difluorobenzyl)-5-[(4-methyl-1-piperazinyl)methyl]-2-mercaptoimidazole] |  | maximal blood pressure reduction ([3]; mean arterial blood pressure monitored for 260 minutes): approximately 25 mmHg; time to significant blood pressure reductions following treatment [3]: ≤ 30 min; blood pressure effect ([3]; within 30 minutes): significant blood pressure reductions; IC50 (DBH [4]): 590 µM
7 | CCCCc1ccc(C(=O)O)nc1 [Fusaric acid] |  | hepatotoxicity [5]: hepatotoxic
8 | NNCc1ccccc1 [benzylhydrazine] | competitive inhibitors | 
